{"source": "patent EP1066315B1", "about": "(University of Dundee, priority 1998, dated 2008)", "key": {"[1]": {"biological_target": "T1, disrupted lysosomes isolated from the human B cell line EDR (TTCF processing activity) (Homo sapiens, UniProt Q99538)", "T1 construct": "disrupted lysosomes isolated from the human B cell line EDR; endogenous in cells; host or cells: human B cell line EDR, Percoll-gradient lysosomal fraction, disrupted", "T1 sequence (Q99538 26-323 limits assumed)": "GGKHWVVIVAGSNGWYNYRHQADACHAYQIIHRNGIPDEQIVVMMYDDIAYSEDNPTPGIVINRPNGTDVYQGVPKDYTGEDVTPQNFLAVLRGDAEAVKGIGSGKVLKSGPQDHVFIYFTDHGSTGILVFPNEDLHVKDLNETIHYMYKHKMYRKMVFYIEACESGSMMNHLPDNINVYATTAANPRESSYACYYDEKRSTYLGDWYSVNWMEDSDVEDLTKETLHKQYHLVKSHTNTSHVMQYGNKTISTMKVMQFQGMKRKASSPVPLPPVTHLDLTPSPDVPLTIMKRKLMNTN", "assay": "Digestion of TTCF by disrupted B cell lysosomes, SDS-PAGE readout", "assay_type": "biochemical", "description": "(§1) The invention will now be described by reference to the following Examples and Figures wherein • Figure 1: Processing of TTCF by a leupeptin-insensitive cysteine endopeptidase activity. (a) TTCF was digested in vitro in the presence of disrupted lysosomes (1-2 µg) in the presence or absence of iodoacetamide (1 mM), leupeptin, E64 or pepstatin (each at 0.1 mg/ml). Digestions were in 0.1 M NH4 acetate at pH 4.5 or Na2HPO4, pH 6.0 or 7.0. After 4 hours at 37°C, the reactions were separated by Tris-tricine SDS-PAGE and stained with Coomassie Blue. (b) Cleavage sites: TTCF digestion products were separated by SDS PAGE and electrophoretically transferred to nitrocellulose membrane. Individual fragments numbered 1-6 were subjected to 5 cycles of Edman degradation. N-terminal sequence obtained is shown in bold following upstream residues from TTCF (tetanus toxin numbering). The N-terminal sequence of His-tagged TTCF was obtained for fragments 1 and 3. (c) Residues Asn 1184 and Glu 1184 in TTCF were mutated to alanine (see Methods) and digestions performed as before. The mutation abolishes cleavage at the mutated site but not at the first site (doublet at 47 kD). In this experiment cleavage of the third site was minimal. • Figure 2: TTCF is processed by an asparaginyl endopeptidase. (a) Chromatography of the TTCF processing activity on Mono-S resin. Fractions eluted by NaCl gradient were incubated with the substrates Z-Ala-Ala-Asn-NHMec or Z-Phe-Arg-NHMec in the presence or absence of E64 (trans-epoxysuccinyl-L-leucylamido-(4-guanidino)butane). […] (b) Fractions as above were incubated with 10 µg TTCF in the presence or absence of E64 for 4 hours at 37°C prior to SDS-PAGE analysis. (c) Each fraction was analysed by SDS-PAGE and Western blotting. Electrophoretically transferred material was probed with an affinity purified antiserum raised against the peptide KGIGSGKVLKSGPQC from human legumain^1. • Figure 3: Peptide inhibitors of AEP block asparaginyl endopeptidase activity and TTCF processing in vitro and in vivo. (a) TTCF was digested with purified AEP (legumain from pig kidney) in the presence or absence of 0.2 mg/ml of the peptides indicated. […] (b) Purified AEP or a crude lysosomal protease mixture were incubated with Z-Ala-Ala-Asn-NHMec, Z-Phe-Arg-NHMec (cathepsins L&B) or Z-Val-Val-Ala NHMec (cathepsin S) in the presence of increasing concentrations of AENK or AEQK. Release of 7-amino-4-methyl coumarin was measured after 10, 20 or 30 minutes. […] At different times the cells were washed, fixed in 0.05 % glutaraldehyde and co-cultured with autologous TTCF specific T cell clones. […] Proteins obtained from commercial sources, as described in the literature or custom peptides were digested with purified pig kidney legumain at pH 5.5 in the presence of 1 mM DTT. […] When present peptide was maintained during antigen pulsing at 1 mg/ml (a) or 2 mg/ml (b). At different times the cells were washed, fixed in 0.05 % glutaraldehyde and antigen presentation measured using proliferation of different autologous TTCF-specific T cell clones. c, AEP pre-processing of TTCF speeds antigen presentation. […] Presentation was measured after 60 minutes of antigen pulsing using EBV B cells.\n[…]. […] Nor could we reproduce the lysosomal TTCF digestion pattern or indeed generate any of these fragments using purified cathepsins L, S, B, D or E , all of which have been implicated in the class II MHC antigen processing pathway (reviewed in refs 5 & 6).\nTTCF processing activity. Lysosomal fractions from the human B cell line EDR were prepared on 27 % Percoll density gradients as previously described^8 using ^125I-labelled transferrin (internalised for 30 minutes at 37°C) and β-hexosaminidase to identify endosomal/plasma membrane and lysosomal fractions respectively. The peak of lysosomes was collected by centrifugation at 40,000 g for 1 hour, removed from the underlying Percoll pellet, collected again at 50,000 g for 1 hour and stored frozen. […]"}, "[2]": {"assay": "crude lysosomal protease mixture (B cell lysosomal fractions)", "conditions": "human, up to 30 minutes"}, "[3]": {"assay": "B cell lysosomal fractions (crude lysosomal protease mixture)", "conditions": "human, up to 30 minutes"}, "AEP": {"test_system": "AEP", "assay": "Purified AEP", "conditions": "up to 30 minutes"}, "[4]": {"assay": "Mono-S fractions of the partially purified TTCF processing activity from a crude B cell lysosome fraction", "conditions": "human, 37°C, up to 4 hours"}, "[5]": {"test_system": "purified AEP (legumain from pig kidney)", "assay": "Digestion of TTCF with purified AEP in the presence of tetrapeptides", "assay_type": "biochemical", "conditions": "0.2 mg/ml peptide; Fig 3a", "description": "The invention will now be described by reference to the following Examples and Figures wherein • Figure 1: Processing of TTCF by a leupeptin-insensitive cysteine endopeptidase activity. (a) TTCF was digested in vitro in the presence of disrupted lysosomes (1-2 µg) in the presence or absence of iodoacetamide (1 mM), leupeptin, E64 or pepstatin (each at 0.1 mg/ml). Digestions were in 0.1 M NH4 acetate at pH 4.5 or Na2HPO4, pH 6.0 or 7.0. After 4 hours at 37°C, the reactions were separated by Tris-tricine SDS-PAGE and stained with Coomassie Blue. (b) Cleavage sites: TTCF digestion products were separated by SDS PAGE and electrophoretically transferred to nitrocellulose membrane. Individual fragments numbered 1-6 were subjected to 5 cycles of Edman degradation. N-terminal sequence obtained is shown in bold following upstream residues from TTCF (tetanus toxin numbering). The N-terminal sequence of His-tagged TTCF was obtained for fragments 1 and 3. (c) Residues Asn 1184 and Glu 1184 in TTCF were mutated to alanine (see Methods) and digestions performed as before. The mutation abolishes cleavage at the mutated site but not at the first site (doublet at 47 kD). In this experiment cleavage of the third site was minimal. • Figure 2: TTCF is processed by an asparaginyl endopeptidase. (a) Chromatography of the TTCF processing activity on Mono-S resin. Fractions eluted by NaCl gradient were incubated with the substrates Z-Ala-Ala-Asn-NHMec or Z-Phe-Arg-NHMec in the presence or absence of E64 (trans-epoxysuccinyl-L-leucylamido-(4-guanidino)butane). […] (b) Fractions as above were incubated with 10 µg TTCF in the presence or absence of E64 for 4 hours at 37°C prior to SDS-PAGE analysis. (c) Each fraction was analysed by SDS-PAGE and Western blotting. Electrophoretically transferred material was probed with an affinity purified antiserum raised against the peptide KGIGSGKVLKSGPQC from human legumain^1. • Figure 3: Peptide inhibitors of AEP block asparaginyl endopeptidase activity and TTCF processing in vitro and in vivo. […] Release of 7-amino-4-methyl coumarin was measured after 10, 20 or 30 minutes. […] At different times the cells were washed, fixed in 0.05 % glutaraldehyde and antigen presentation measured using proliferation of different autologous TTCF-specific T cell clones. c, AEP pre-processing of TTCF speeds antigen presentation. […] Presentation was measured after 60 minutes of antigen pulsing using EBV B cells.\nWe decided to test the possibility that high concentrations of asparagine containing peptides might act as competitive inhibitors. […] To establish that inhibition of AEP was specific, we measured the hydrolysis of different synthetic peptide substrates in the presence and absence of these tetrapeptides."}, "[6]": {"test_system": "peripheral blood mononuclear cells (PBMC) / autologous TTCF specific T cell clones", "assay": "TTCF antigen presentation by PBMC, read out as proliferation of autologous T cell clones", "assay_type": "cell-based, human", "conditions": "PBMC, 1 mg/ml peptide, between 30 and 60 minutes of antigen pulsing; Fig 9a", "description": "as §1\nIf AEP plays a role in TTCF processing in antigen presenting cells then sufficiently high levels of the competing AENK peptide might be expected to interfere with normal class II MHC loading of TTCF epitopes. Following a 15 minute preincubation with or without tetrapeptides, freshly isolated peripheral blood mononuclear cells (PBMC) were incubated with TTCF antigen in the continued presence or absence of the peptides. At different times, the cells were washed, fixed and then co-cultured with different autologous T cell clones to assess expression of different peptide/MHC complexes. […] At later times there was some recovery of presentation of these epitopes as expected for a competitive inhibitor. […]"}, "[7]": {"test_system": "EBV-transformed B cells / autologous TTCF-specific T cell clones", "assay": "TTCF antigen presentation by EBV-transformed B cells, read out as proliferation of autologous T cell clones", "assay_type": "cell-based, human", "conditions": "EBV-B cells from donor, 2 mg/ml peptide; Fig 9b", "description": "The invention will now be described by reference to the following Examples and Figures wherein • Figure 1: Processing of TTCF by a leupeptin-insensitive cysteine endopeptidase activity. (a) TTCF was digested in vitro in the presence of disrupted lysosomes (1-2 µg) in the presence or absence of iodoacetamide (1 mM), leupeptin, E64 or pepstatin (each at 0.1 mg/ml). Digestions were in 0.1 M NH4 acetate at pH 4.5 or Na2HPO4, pH 6.0 or 7.0. After 4 hours at 37°C, the reactions were separated by Tris-tricine SDS-PAGE and stained with Coomassie Blue. (b) Cleavage sites: TTCF digestion products were separated by SDS PAGE and electrophoretically transferred to nitrocellulose membrane. Individual fragments numbered 1-6 were subjected to 5 cycles of Edman degradation. N-terminal sequence obtained is shown in bold following upstream residues from TTCF (tetanus toxin numbering). The N-terminal sequence of His-tagged TTCF was obtained for fragments 1 and 3. (c) Residues Asn 1184 and Glu 1184 in TTCF were mutated to alanine (see Methods) and digestions performed as before. The mutation abolishes cleavage at the mutated site but not at the first site (doublet at 47 kD). In this experiment cleavage of the third site was minimal. • Figure 2: TTCF is processed by an asparaginyl endopeptidase. (a) Chromatography of the TTCF processing activity on Mono-S resin. Fractions eluted by NaCl gradient were incubated with the substrates Z-Ala-Ala-Asn-NHMec or Z-Phe-Arg-NHMec in the presence or absence of E64 (trans-epoxysuccinyl-L-leucylamido-(4-guanidino)butane). […] (c) Each fraction was analysed by SDS-PAGE and Western blotting. […] Release of 7-amino-4-methyl coumarin was measured after 10, 20 or 30 minutes. […] At different times the cells were washed, fixed in 0.05 % glutaraldehyde and antigen presentation measured using proliferation of different autologous TTCF-specific T cell clones. c, AEP pre-processing of TTCF speeds antigen presentation. […] Presentation was measured after 60 minutes of antigen pulsing using EBV B cells. […]"}}, "note": "“Also recorded” adds a separate entry of the source. Residues, ends and D or L forms follow the SMILES beside them. *: point of attachment. Fmoc = O=C(OCC1c2ccccc2-c2ccccc21)*; Cbz = O=C(OCc1ccccc1)*; CHN2 = [N-]=[N+]=C*", "data": [{"compound": "NC(=O)CI", "note": "[iodoacetamide]", "values": [{"measurement": "sensitivity of lysosomal TTCF digestion activity to inhibitor", "setting": "[1]; iodoacetamide 1 mM, 4 hours at 37°C, Fig 1a", "result": "sensitive"}]}, {"compound": "CC(=O)N[C@@H](CC(C)C)C(=O)N[C@@H](CC(C)C)C(=O)N[C@H](C=O)CCCNC(=N)N", "note": "[leupeptin, acetyl-leucyl-leucyl-arginal]", "values": [{"measurement": "inhibition of lysosomal digestion of TTCF", "setting": "[1]; inhibitor at 0.1 mg/ml, pH 4.5, 4 hours at 37°C, Fig 1a", "result": "could not inhibit; also recorded: completely resistant"}]}, {"compound": "[N-]=[N+]=CC(=O)[C@H](Cc1ccccc1)NC(=O)[C@H](Cc1ccccc1)NC(=O)OCc1ccccc1", "note": "[Z-Phe-Phe-CHN2] (Cbz-Phe-Phe-CHN2)", "values": [{"measurement": "sensitivity of lysosomal TTCF digestion activity to inhibitor", "setting": "[1]; high concentrations, data not shown", "result": "sensitive"}]}, {"compound": "Z-Phe-Arg-NHMec", "values": [{"measurement": "cleaved bond", "setting": "[2]", "result": "Arg-NHMec"}, {"measurement": "cleaved bond", "setting": "[3]", "result": "Arg-NHMec"}]}, {"compound": "CCN1C(=O)C=CC1=O", "note": "[N-ethyl maleimide]", "values": [{"measurement": "effect on lysosomal TTCF digestion activity", "setting": "[1]; concentration not given, data not shown", "result": "sensitive"}]}, {"compound": "Z-Ala-Ala-Asn-7-(4-methyl)coumarylamide", "values": [{"measurement": "cleaved bond", "setting": "AEP", "result": "Asn-NHMec, 10 minutes"}, {"measurement": "cleaved bond", "setting": "[4]", "result": "Asn-7-(4-methyl)coumarylamide"}]}, {"compound": "C[C@H](NC(=O)OCC1c2ccccc2-c2ccccc21)C(=O)N[C@@H](CCC(=O)O)C(=O)N[C@@H](CCC(N)=O)C(=O)N[C@@H](CCCCN)C(N)=O", "note": "[AEQK] (Fmoc-AEQK-NH2)", "values": [{"measurement": "inhibition of processing of TTCF by AEP", "setting": "[5]", "result": "did not inhibit"}, {"measurement": "presentation to most clones (eg AK 5, 90 & 6) at early times", "setting": "[6]", "result": "detectable"}, {"measurement": "antigen presentation by EBV-B cells", "setting": "[7]", "result": "virtually no effect"}]}]}
